How the values were obtained:
[1] = target: T1, JAK1 (Homo sapiens, UniProt P23458); assay: In vitro enzyme inhibition, 33P-ATP filter kinase assay (Reaction Biology); assay type: biochemical
T1 construct: 866-1154; GST (N); purchased Reaction Biology Corp. (contract assay); host or cells: Baculovirus in Sf21 insect cells
Experimental: (§1) Compounds of the invention were assayed for their ability to inhibit TYK2 kinase and other JAK kinases.
(§2) Substrates and kinases used in the assays are identified in Table 2 below.
(§3) JAK3tide=[Ac-[…]-NH2]

[2] = target: T2, TYK2 kinase (Homo sapiens, UniProt P29597); assay: as above; assay type: biochemical
T2 construct: 833-1187; GST (N); purchased Reaction Biology Corp. (contract assay); host or cells: Baculovirus in Sf21 insect cells
Experimental: as §1, §2, §3

[3] = target: T3, JAK3 (Homo sapiens, UniProt P52333); assay: as above; assay type: biochemical
T3 construct: 781-1124; GST (N); purchased Reaction Biology Corp. (contract assay); host or cells: Baculovirus in Sf21 insect cells
Experimental: as §1, §2, §3

[4] = Animal bodyweight in MOLT-4 xenograft study (Example 9); assay type: in vivo, male SCID mice; conditions: 25 and 50 mg/kg BID PO, 21 days
Experimental: (§4) A total of 50 male SCID mice aged 5-7 weeks were used for the study. These were bred in-house at Axis Bioservices. Animals were housed in IVC cages (up to 5 per cage) with individual mice identified by tail mark. All animals were allowed free access to a standard certified commercial diet and sanitised water during the study. The holding room was maintained under standard conditions: 20-24° C., 40-70% humidity and a 12 h light/dark cycle.
(§5) MOLT-4 cells (1×10^7 in matrigel) were implanted onto the rear dorsum of male SCID mice using a 25-gauge needle. When tumours reached approximately 100-150 mm^3 the mice were randomly assigned to the following treatment groups.
(§6) Dosing solutions were prepared on the day of study.
(§7) The formulation for cyclophosphamide was PBS at a dosing volume of 10 ml/kg based on animal weight on day of dosing.
(§8) For combination dosing, both compounds were dosed at the same time.

[5] = tested on: MOLT-4 xenografts; assay: Tumour growth delay study in mice bearing MOLT-4 xenografts (Example 9); assay type: in vivo, male SCID mice
Experimental: as §4, §5, §6, §7, §8

[6] = tested on: CCRF-HSB-2 tumours; assay: Tumour growth delay study in mice bearing CCRF-HSB-2 tumours (Example 8); assay type: in vivo, male SCID mice; conditions: for T/C (test versus control) at the end of the study period: 18 days
Experimental: as §6

[7] = tested on: PARP cleavage in MOLT-4 cells; assay: Western blot assay, chronic compound treatment; assay type: cell-based; conditions: 48 hrs, tested 0.03-3 μM, FIG. 2
Experimental: MOLT-4 cells were treated with Compounds 25 and 29 (of Example 1) and three benchmark inhibitors (GLPG0634 (Filgotinib, developed by Galapagos), TG101209 and GDC-046) as comparative examples at five concentrations (3, 1, 0.3, 0.1 and 0.03 μM), for 48 hrs.
Cell lysates were analysed by Western blot and probed with antibodies against PARP and Actin.
The details of the antibodies used are set out in the table below.
Protocol • Cell were plated in 6-well plates at 4e6 cells per well in 6 ml of media (RPMI+10% FBS) and incubated for at least 1 h at 37° C., 5% CO2. • Cells were treated with the indicated concentrations of compounds for 48 hrs. • Cells were harvested by centrifuging at 12,000 rpm for 1 min (4° C.), washed in ice cold PBS and centrifuged again at 12,000 rpm for 1 min (4° C.). • The supernatant was removed and the cell pellet snap frozen on dry ice. • Cells were lysed in RIPA buffer (with protease and phosphatase inhibitors) and incubated on ice for 30 min. • Cellular debris was pelleted at 13,000 rpm for 5 min at 4° C., supernatant was transferred to a fresh tube. • Protein concentration was estimated using a BCA assay. • 30 μg of protein was loaded onto 4-12% NuPAGE Novex Bis-Tris protein gels (MOPs buffer). • Protein was transferred to a PVDF membrane using dry transfer (iBlot) and western blotting performed against the antigens of interest.

[8] = tested on: CCRF-CEM cells (TYK2-dependent T-ALL); assay: Cell proliferation assay (ATPlite, 7 days); assay type: cell-based; conditions: Homo sapiens, 168 h
Experimental: (§9) Jurkat, MOLT-4, CCRF-CEM and CCRF-HSB-2 cells are all TYK2-dependent T-ALL cells. Loucy cells are TYK2-independent T-ALL cell lines. Dexamethasone, Etoposide and Paclitaxel were used as positive controls. Compound effects were studied 7 days after compound addition […] Luminescent product was detected using a BMG FLUOstar plate reader. • The data were analysed using a 4-parameter logistic equation in GraphPad Prism.

[9] = tested on: Jurkat cells (TYK2-dependent T-ALL); assay: Cell proliferation assay (ATPlite, 7 days); assay type: cell-based; conditions: Homo sapiens, 168 h
Experimental: as §9

[10] = tested on: CCRF-HSB-2 cells (TYK2-dependent T-ALL); assay: Cell proliferation assay (ATPlite, 7 days); assay type: cell-based; conditions: Homo sapiens, CCRF-HSB-2, 168 h
Experimental: as §9

[11] = tested on: Loucy cells (TYK2-independent T-ALL); assay: Cell proliferation assay (ATPlite, 7 days); assay type: cell-based; conditions: 168 h
Experimental: as §9

[12] = tested on: MOLT-4 cells (TYK2-dependent T-ALL); assay: Cell proliferation assay (ATPlite, 7 days); assay type: cell-based; conditions: Homo sapiens, MOLT-4, 168 h
Experimental: as §9

[13] = tested on: TYK2 dependent cell lines (T-ALL cells); conditions: Sanda et al.; read-out: IC50 for inhibiting growth of TYK2 dependent cell lines; cited from earlier work
[14] = tested on: TYK2-independent cell line (LOUCY); conditions: Sanda et al.; cited from earlier work
[15] = 150 mg/kg Q5D IP
Experimental: A total of 40 male SCID mice aged 5-7 weeks were used for the study. These were purchased from Charles River and allowed to acclimatize for 7 days prior to tumour implantation. Animals were housed in IVC cages (up to 5 per cage) with individual mice identified by tail mark. All animals were allowed free access to a standard certified commercial diet and sanitised water during the study. The holding room was maintained under standard conditions: 20-24° C., 40-70% humidity and a 12 h light/dark cycle.
CCRF-HSB-2 cells (5×10^6 in matrigel) were implanted onto the rear dorsum of male SCID mice using a 25-gauge needle. When tumours reached a size of approximately 100-150 mm^3 the mice were randomly assigned to the following treatment groups.
Dosing solutions were prepared on the day of study. Formulation was 0.5% methylcellulose/0.025% Tween-20 at dosing volume of 10 ml/kg based on animal weight on day of dosing. Animals were dosed orally twice daily (12 hours apart) for 18 consecutive days.

[16] = tested on: MOLT-4 tumours; assay: Efficacy study in mice bearing MOLT-4 tumours (Example 7); assay type: in vivo, male SCID mice; conditions: 21 days; for effect on MOLT-4 tumour growth: FIG. 7
Source text: MOLT-4 cells (1×10^7 in matrigel) were implanted onto the rear dorsum of male SCID mice using a 25-gauge needle. When tumours reached approximately 100 mm^3 the mice were randomly assigned to the following treatment groups.

[17] = PKPD study: plasma and tumour concentrations; assay type: in vivo, male SCID mice; conditions: MOLT-4 tumour-bearing mice
Experimental: (§10) Male SCID mice were implanted with MOLT-4 tumour cells (1×10^7 in 50% matrigel). When tumours reached approximately 150 mm^3 animals received a single dose of test compound. Animals to be sampled at 24 hrs also received a second dose at 12 hrs.
(§11) At 1, 6 and 24 h animals were sacrificed and plasma prepared. Tumour tissue was removed and divided into 2 sections—one for bioanalysis and the second for homogenisation for western blotting.

[18] = tested on: pSTAT1, pTYK2, cleaved PARP in MOLT-4 tumours; assay: PKPD study: Western blot of tumour tissue; assay type: in vivo, male SCID mice; conditions: FIG. 6
Experimental: as §10, §11
Tumour tissue was homogenised in lysis buffer supplemented with protease and phosphatase inhibitors. Protein in individual samples was quantified using a commercially available BCA kit.
50 μg total protein was run on a 4-20% pre-cast gel and transferred to PVDF membrane before being incubated with the following antibodies: • pSTAT1 • STAT1 • pTYK2 • TYK2 • Cleaved PARP • B-actin • Anti-rabbit IgG

T2 sequence (P29597 833-1187): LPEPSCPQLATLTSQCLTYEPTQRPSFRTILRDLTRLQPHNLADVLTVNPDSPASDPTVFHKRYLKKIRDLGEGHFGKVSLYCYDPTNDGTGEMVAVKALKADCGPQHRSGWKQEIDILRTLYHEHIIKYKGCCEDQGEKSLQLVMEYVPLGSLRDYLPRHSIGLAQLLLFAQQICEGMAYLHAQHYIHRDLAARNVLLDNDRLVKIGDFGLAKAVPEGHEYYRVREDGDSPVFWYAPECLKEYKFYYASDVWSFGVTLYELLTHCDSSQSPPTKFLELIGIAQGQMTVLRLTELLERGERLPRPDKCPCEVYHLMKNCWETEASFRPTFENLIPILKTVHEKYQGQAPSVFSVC
T1 sequence (P23458 866-1154): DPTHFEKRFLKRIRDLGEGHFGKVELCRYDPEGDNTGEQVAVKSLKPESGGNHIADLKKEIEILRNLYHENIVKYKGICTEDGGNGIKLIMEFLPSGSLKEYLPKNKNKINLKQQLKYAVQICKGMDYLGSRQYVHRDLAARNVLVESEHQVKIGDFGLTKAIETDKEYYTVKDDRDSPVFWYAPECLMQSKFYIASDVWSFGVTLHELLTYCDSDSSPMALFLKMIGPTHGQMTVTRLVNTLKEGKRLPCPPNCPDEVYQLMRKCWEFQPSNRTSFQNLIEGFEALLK
T3 sequence (P52333 781-1124): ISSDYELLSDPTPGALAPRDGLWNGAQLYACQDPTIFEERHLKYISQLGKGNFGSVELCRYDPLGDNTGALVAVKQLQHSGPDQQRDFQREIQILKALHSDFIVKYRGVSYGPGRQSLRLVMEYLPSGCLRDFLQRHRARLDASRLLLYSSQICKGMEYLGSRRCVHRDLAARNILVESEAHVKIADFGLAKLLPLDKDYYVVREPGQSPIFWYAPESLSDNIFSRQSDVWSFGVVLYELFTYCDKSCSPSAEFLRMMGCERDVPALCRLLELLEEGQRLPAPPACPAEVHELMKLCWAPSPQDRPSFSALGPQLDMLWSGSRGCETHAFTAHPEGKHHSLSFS

Molecule: NC(=O)c1nc(-c2c(Cl)cccc2Cl)oc1Nc1ccc(C(=O)N2CCOCC2)cc1 [Compound 29, 2-(2,6-dichloro-phenyl)-5-[4-(morpholine-4-carbonyl)-phenylamino]-oxazole-4-carboxylic acid amide]
- IC50 [1]: 16.8 nM
- IC50 [2]: 0.617 nM
- IC50 [3]: 90.8 nM
- bodyweight during the study [4]: maintained at pre-treatment levels
- T/C (test versus control) at the end of the study period ([5]; 25 mg/kg BID PO, 21 days): 26.8%
- T/C (test versus control) at the end of the study period ([5]; 50 mg/kg BID PO, 21 days): 16.6%
- T/C (test versus control) at the end of the study period ([6]; 25 mg/kg BID PO): 18.1%
- T/C (test versus control) at the end of the study period ([6]; 50 mg/kg BID PO): 10.8%
- control of CCRF-HSB-2 tumour growth ([6]; 25 and 50 mg/kg BID PO, similar inhibition at both doses (p=0.6397), FIG. 8): good efficacy in controlling CCRF-HSB-2 tumour growth
- tumour weight at Day 18 versus vehicle only ([6]; 25 and 50 mg/kg BID, p<0.0001, FIG. 9): significantly smaller
- concentrations at which cleaved PARP is present (apoptosis) [7]: ≥ 3 µM
- IC50 [8]: 1.8 µM
- IC50 [9]: 0.6 µM
- IC50 [10]: 1.4 µM
- IC50 [11]: 1.7 µM
- IC50 [12]: 1.2 µM

Molecule: JAK Inhibitor I
- IC50 [13]: 1000 to 3000 nM
- sensitivity of TYK2-independent cell line (LOUCY) [14]: insensitive

Molecule: O=P1(N(CCCl)CCCl)NCCCO1 (stereo not drawn) [cyclophosphamide, reference compound]
- T/C (test versus control) at the end of the study period ([5]; 150 mg/kg Q5D IP): 26.2%
- T/C (test versus control) at the end of the study period ([6]; 150 mg/kg Q5D IP): 5.9%
- animal bodyweight [15]: lost weight this was not significant
- T/C (test versus control), tumour volume, end of study ([16]; 150 mg/kg Q5D): 51.7%
- T/C (test versus control), tumour weight, end of study ([16]; 150 mg/kg Q5D): 49.0%

Molecule: NC(=O)c1nc(-c2c(F)cccc2Cl)oc1Nc1ccc(C(=O)N2CCOCC2)cc1 [Compound 25, 2-(2-chloro-6-fluoro-phenyl)-5-[4-(morpholine-4-carbonyl)-phenylamino]-oxazole-4-carboxylic acid amide]
- IC50 [1]: 28.9 nM
- IC50 [2]: 0.564 nM
- IC50 [3]: 43.2 nM
- maximal concentration in plasma ([17]; plasma, single dose, FIG. 4): > 4000 ng/mL
- time of maximal exposure in plasma after dosing ([17]; plasma, single dose, FIG. 4): one
- maximal concentration in tumour tissue ([17]; tumour tissue, FIG. 5): > 3000 ng per gram of tumour tissue
- time of maximal exposure in tumour tissue after dosing ([17]; tumour tissue, FIG. 5): six
- concentrations at which cleaved PARP is present (apoptosis) [7]: ≥ 1 µM
- T/C (test versus control), tumour volume, end of study ([16]; 25 mg/kg BID per os): 63.5%
- T/C (test versus control), tumour weight, end of study ([16]; 25 mg/kg BID per os): 60.7%
- effect on MOLT-4 tumour growth ([16]; 25 mg/kg BID per os): slowing growth but not resulting in tumour regression
- T/C (test versus control), tumour volume, end of study ([16]; 50 mg/kg BID per os): 27.0%
- T/C (test versus control), tumour weight, end of study ([16]; 50 mg/kg BID per os): 24.0%
- effect on MOLT-4 tumour growth ([16]; 50 mg/kg BID per os): tumour regression
- level of phosphorylated STAT1 in tumour ([18]; MOLT-4 tumour tissue at 1, 6, 24 h vs vehicle): reduction in level of phosphorylated STAT1 at t=1 h, returning to normal in comparison with vehicle treated controls between 6 and 24 h
- cleaved Parp in tumour ([18]; MOLT-4 tumour tissue, relative to vehicle treated controls): An increase in cleaved Parp, relative to vehicle treated controls, was observed between 1 and 24 h
- Phosphorylated TYK2 levels in tumour ([18]; MOLT-4 tumour tissue, second dose at 12 hrs): increased at 24 h following the initial dose
- IC50 [8]: 0.38 µM
- IC50 [9]: 0.15 µM
- IC50 [10]: 0.43 µM
- IC50 [11]: 0.35 µM
- IC50 [12]: 0.27 µM

Source: patent publication US20210401809A1, “PHARMACEUTICAL COMPOUNDS” (Sareum Limited, priority 2016, published 2021)
